Results as given in PubChem BioAssay (NCI).
Where “and” joins values, the source holds several entries; their conditions need not be identical. Equal values may be shown once.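 Test compounds were applied to cells in 96-well plates for 48 hours at 5 doses. The concentration for 50% growth inhibition is given as GI50. TGI: total growth inhibition.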

These molecules were tested on OVCAR-3 ovarian (assay: growth of human tumour cells (NCI), 48 h).
`Cc1ccccc1N1C(=O)/C(=C/c2ccc(N(CCC#N)CCC#N)cc2)N=C1c1cc([N+](=O)[O-])ccc1Cl` showed a TGI greater than 100 µM. For `Cc1ccc(S(=O)(=O)NCC2CCCCC2=O)cc1` (stereo not given), the TGI was greater than 100 µM. Work on `CCC[CH2][Sn]([CH2]CCC)([CH2]CCC)[O]C(=O)CC` yielded a GI50 of 0.133 µM and a TGI of 0.261 µM. `CNC(=S)NC1CCCCC1NC(=S)NC` (stereo not given) was tested, and the TGI was greater than 100 µM. `CC1OC(n2cc(F)c(=O)[nH]c2=O)C=CC1O` (stereo not given) showed a TGI greater than 100 µM. With `C=C(C=O)[C@@H]1C2OC(=O)C(=C)[C@@H]2CC(O)[C@@]1(C)CC` (stereo not given in full) the TGI was 21.3 µM. `C=C(CCCCC)CN1CCCC1[C@@](C)(O)CC(=O)OCC` (stereo not given in full) gave a TGI greater than 100 µM. For `NC(=NCCCOc1ccc(Cl)cc1)Nc1ccc(C(F)(F)F)cc1`, the GI50 was 2.26 µM and the TGI was 6.14 µM. Work on `O=C1c2ccccc2C(=O)C1(Cl)C1(S(=O)(=O)O)c2ccccc2-c2ccccc21` yielded a TGI greater than 100 µM.

These molecules were tested on SF-539 CNS (assay: growth of human tumour cells (NCI), 48 h).
Work on `O=[n+]1c2c(n([O-])c3ccccc31)CCCCCCCCCC2` yielded a TGI greater than 100 µM. Molecule `CNC(=S)N(C)C(=S)Nn1c(=O)c(C)nn(C)c1=S` has a TGI greater than 100 µM. `CCCCCCCCCC/C=C/CC(=O)SCCNC(=O)CCNC(=O)[C@@H](O)C(C)(C)COP(=O)(O)OP(=O)(O)OCC1OC(n2cnc3c(N)ncnc32)C(O)C1OP(=O)(O)O` (stereo not given in full) gave a TGI greater than 10 µM. `O=C1CCCC/C(=C/c2ccccc2)N1` was tested, and the TGI was greater than 100 µM. `O=C1CN=C(C[N+](=O)[O-])c2ccccc21` was tested, and the TGI was greater than 100 µM. `CCCCN(CCCC)CC(C(=O)Nc1ccc([N+](=O)[O-])cc1[N+](=O)[O-])/C(C)=N\NC(=S)NN` (stereo not given) gave a TGI greater than 100 µM. In the case of `S=C(N/N=C/c1ccco1)NC12CC3CC(CC(C3)C1)C2`, the TGI is reported as greater than 100 µM. For `CS(=O)(=O)N/N=C/CN1C(=O)c2ccccc2C1=O`, the TGI was greater than 100 µM. Work on `CC(=O)O.CC(=O)O.CC(=O)O.CC(=O)O.CC(=O)O.CC(=O)O.O.[Ti].[Ti]` yielded a GI50 greater than 100 µM and a TGI greater than 100 µM. `COC(=O)C1=C(c2ccc3c(c2)OCO3)O[C@H](c2cc(OC)c(OC)c(OC)c2)[C@H]1COC(C)=O` gave a TGI of 6.91 µM. For `COc1ccc(OC)c(NC(=O)C(=O)NNC(=O)c2sc(NNC(C)=O)nc2C)c1`, the TGI was 82.3 µM. In the case of `O=C(Nc1ccc(OS(=O)(=O)c2ccccc2)cc1)C12CC3CC(CC(C3)C1)C2`, the GI50 is reported as 0.965 µM and the TGI is reported as greater than 100 µM. `O=[N+]([O-])c1nccn1CC(O)c1ccc(F)cc1` (stereo not given) showed a TGI greater than 100 µM. In the case of `COc1ccc(NC(=O)CCc2cc(-c3ccc(O)c(OC)c3)nc(NC#N)n2)cc1`, the TGI is reported as greater than 100 µM. For `COC(=O)c1cc2c3ccccc3n(C(C)=O)c2cn1`, the TGI was greater than 100 µM. Work on `O=C1c2ccccc2C2(Br)C(=O)c3ccccc3C12` (stereo not given) yielded a TGI greater than 100 µM. Molecule `O=S(=O)([O-])c1ccc2c(c1)-c1nc-2nc2[n-]c(nc3nc(nc4[n-]c(n1)c1ccc(S(=O)(=O)[O-])cc41)-c1cc(S(=O)(=O)[O-])ccc1-3)c1ccc(S(=O)(=O)[O-])cc21.[Cu+2].[Na+]` has a GI50 greater than 100 µM and a TGI greater than 100 µM. `COc1ccc(N(C)c2ncnc3occ(C)c23)cc1` gave a GI50 of less than 0.01 µM and a TGI of less than 0.01 µM. For `CCCCOC(=O)C1C(c2ccc(Cl)cc2)NC(c2ccc(Cl)cc2)C(C(=O)OCCCC)S1(=O)=O` (stereo not given), the TGI was greater than 100 µM. Molecule `Cc1cc(Br)cc(C)c1NC(=O)C(=O)C(C(=O)c1ccc2ccccc2c1)C1OC(=O)c2ccccc21` (stereo not given) has a TGI of 11.2 µM. `CCOC(=O)Oc1c(OC)cc(C(=O)NC2CCc3cc(OC)c(OC)c(OC)c3-c3ccc(SC)c(=O)cc32)cc1OC` (stereo not given) was tested, and the GI50 was less than 0.007 µM and the TGI was 0.057 µM and 0.00743 µM. `CC(=O)Nc1ccc(C(=O)NN2C(=O)C(Cl)C2c2ccccc2)cc1` (stereo not given) gave a TGI greater than 100 µM. Molecule `CC(C)(C)OC(=O)NCC(=O)OCc1ccccc1` has a TGI greater than 100 µM. With `Cc1ccc(SC(C)/C=C/NNC2=NC(c3ccccc3)C(c3ccccc3)=NN2)cc1` (stereo not given) the TGI was greater than 100 µM. `CC(C)(C)[SiH]12(OC(C(F)(F)F)(C(F)(F)F)c3ccccc31)OC(C(F)(F)F)(C(F)(F)F)c1ccccc12` gave a TGI of 6.54 µM. In the case of `O=S(O)CCCCSSCC(O)C(O)CSSCCCCS(=O)O` (stereo not given), the TGI is reported as 69.7 µM and > 100 µM. `O=C1OC(c2ccccc2)=N/C1=C/C=C/c1ccco1` showed a TGI greater than 100 µM. In the case of `Clc1ccc2c(NCCCNc3nccc(Nc4ccc(Br)cc4)n3)ccnc2c1`, the GI50 is reported as 1.81 µM and the TGI is reported as 3.37 µM. With `Cc1ccccc1N1C(=O)/C(=C/c2ccc(N(CCC#N)CCC#N)cc2)N=C1c1cc([N+](=O)[O-])ccc1Cl` the TGI was greater than 100 µM. Molecule `COc1ccc(C2S/C(=C\c3ccccc3O)C(=O)N2NC(=O)Cc2ccccc2)cc1` (stereo not given) has a TGI greater than 100 µM. Work on `Cc1ccc(S(=O)(=O)NCC2CCCCC2=O)cc1` (stereo not given) yielded a TGI greater than 100 µM. Molecule `CCC[CH2][Sn]([CH2]CCC)([CH2]CCC)[O]C(=O)CC` has a GI50 of 0.185 µM and a TGI of 0.38 µM.
